Measured values: patent US11702417B2, “Compounds for improving mRNA splicing” (The General Hospital Corporation, priority 2015, dated 2023)

Test system: FD (familial dysautomonia) IKBKAP minigene, exon 20 inclusion, in HEK293T cells
Assay: Primary splicing assay (FD IKBKAP minigene, Firefly/Renilla luciferase reporter in HEK293T)
Assay type: cell-based, human
Conditions: Homo sapiens, HEK-293T, Firefly/Renilla ratio, 24 hours of treatment; for EC (maximum kinetin efficacy): HEK293T, read-out: ECk (compound concentration at which the maximum kinetin efficacy (200 μM) is reached); for Emax: max efficacy in Primary Assay, kinetin and DMSO as positive and negative controls, read-out: Emax (%)

| Structure (SMILES) | EC (maximum kinetin efficacy) [µM] | Emax [%] |
| --- | --- | --- |
| COCCOc1nc2c(NCc3ccco3)nc(Cl)nc2[nH]1 [(293)] | 1.78 | 169 |
| Clc1nc(NCc2ccncc2)c2nc(OC3CCC3)[nH]c2n1 [(294)] | 0.44 | 183 |
| Clc1cc(NCc2nccs2)n2ccnc2n1 [(295)] | – | 54 |
| COCCCOc1nc2c(NCc3ccco3)nc(Cl)nc2[nH]1 [(296)] | 1.81 | 178 |
| COc1nc2c(NCc3ccco3)nc(Cl)nc2n1CCO [(297)] | 4.09 | 150 |
| Clc1cc(NCc2ccncn2)n2ccnc2n1 [(298)] | – | 21 |
| FC(F)(F)COc1nc2c(NCc3ccncc3)nc(Cl)nc2[nH]1 [(299)] | 1.3 | 216 |
| COc1nc2c(NCc3ccncn3)nc(Cl)nc2n1CCO [(300)] | 10 | 84 |
| Cn1cnc2c(NCc3nccs3)nc(Cl)nc21 [(301)] | – | 45 |
| CSc1nc2c(NCc3ccncn3)nc(Cl)nc2[nH]1 [(303)] | 1.51 | 243 |
| Cn1cnc2nc(Cl)nc(NCc3nccs3)c21 [(304)] | 4.14 | 166 |
| CCCCOc1nc2c(NCc3ccncc3)nc(Cl)nc2[nH]1 [(305)] | 0.43 | 284 |
| CCCOc1nc2c(NCc3ccco3)nc(Cl)nc2n1CCO [(306)] | 0.7 | 247 |
| Clc1nc(NCc2ccncc2)c2nc(OCC3CCC3)[nH]c2n1 [(307)] | 0.21 | 292 |
| Clc1nc(NCc2ccco2)c2nc(OCC3CCC3)[nH]c2n1 [(308)] | 0.15 | 310 |
| OCCOc1nc2c(NCc3ccncn3)nc(Cl)nc2[nH]1 [(309)] | 2.08 | 194 |
| OCCOc1nc2c(NCc3nccs3)nc(Cl)nc2[nH]1 [(310)] | 1.5 | 191 |
| CCCCOc1nc2c(NCc3ccco3)nc(Cl)nc2[nH]1 [(311)] | 0.56 | 221 |
| CCCOc1nc2c(NCc3nccs3)nc(Cl)nc2n1CCO [(312)] | 2.29 | 195 |
| Cn1cnc2nc(Cl)nc(NCc3ccncc3)c21 [(313)] | 7.48 | 102 |
| Cn1cnc2nc(Cl)nc(NCc3ccco3)c21 [(314)] | 2.31 | 198 |
| OCCOc1nc2c(NCc3ccncc3)nc(Cl)nc2[nH]1 [(315)] | 2.52 | 165 |
| Cn1cnc2nc(Cl)nc(NCc3ccncn3)c21 [(316)] | 7.09 | 108 |
| CCCOc1nc2c(NCc3ccncn3)nc(Cl)nc2[nH]1 [(317)] | 0.16 | 223 |

| Structure (SMILES) | EC (maximum kinetin efficacy) [µM] | Emax [%] |
| --- | --- | --- |
| CCCCOc1nc2c(NCc3nccs3)nc(Cl)nc2[nH]1 [(318)] | 0.54 | 186 |
| Clc1nc(NCc2ccncn2)c2nc(OC3CCC3)[nH]c2n1 [(321)] | 1.41 | 197 |
| Clc1cc(NCc2ccco2)n2nccc2n1 [(322)] | – | 21 |
| Clc1nc(NCc2ccco2)c2nc[nH]c2n1 [(323)] | – | 26 |
| Clc1nc(NCc2nccs2)c2nc(OCC3CCC3)[nH]c2n1 [(324)] | 0.16 | 226 |
| Clc1cc(NCc2nccs2)n2nccc2n1 [(325)] | – | 20 |
| Clc1nc(NCc2ccncn2)c2nc(OCC3CCC3)[nH]c2n1 [(326)] | 0.07 | 287 |
| CC(C)(C)OC(=O)N1CC(Oc2nc3c(NCc4ccncc4)nc(Cl)nc3[nH]2)C1 [(327)] | 4.64 | 145 |
| COCCOc1nc2c(NCc3nccs3)nc(Cl)nc2[nH]1 [(328)] | 1.79 | 184 |
| Clc1nc(NCc2nccs2)c2nc(OCc3nccs3)[nH]c2n1 [(329)] | 1.97 | 209 |
| Clc1cc(NCc2ccncn2)n2nccc2n1 [(330)] | – | 20 |
| FC(F)(F)COc1nc2c(NCc3ccncn3)nc(Cl)nc2[nH]1 [(331)] | 0.69 | 209 |
| Clc1nc(NCc2nccs2)c2nc(OCC3CCCC3)[nH]c2n1 [(332)] | 0.78 | 189 |
| Clc1nc(NCc2ccco2)c2nc(OC3CNC3)[nH]c2n1 [(333)] | – | 51 |
| Clc1nc(NCc2ccncc2)c2nc(OCC3CCCC3)[nH]c2n1 [(334)] | 0.87 | 177 |
| CCCOc1nc2nc(Cl)nc(NCc3nccs3)c2n1C [(335)] | – | 35 |
| CCCOc1nc2nc(Cl)nc(NCc3ccncc3)c2n1C [(336)] | – | 20 |
| CCCOc1nc2nc(Cl)nc(NCc3ccncn3)c2n1C [(337)] | – | 23 |
| Clc1nc(NCc2ccco2)c2nc(OCC3CCCC3)[nH]c2n1 [(338)] | 1.1 | 222 |
| CCCOc1nc2c(NCc3ccncc3)nc(Cl)nc2n1CCO [(339)] | 1.31 | 188 |
| Clc1nc(NCc2ccncn2)c2nc(OCc3nccs3)[nH]c2n1 [(340)] | 0.95 | 220 |
| Clc1nc(NCc2nccs2)c2nc(OCC3CCC3)sc2n1 [(341)] | 4.16 | 155 |
| CSc1nc(NCc2nccs2)n2ncnc2n1 [(342)] | – | 16 |
| O=c1[nH]c2c(NCc3nccs3)nc(Cl)nc2n1C1CCCCO1 (stereo not shown) [(344)] | – | 18.4 |

| Structure (SMILES) | EC (maximum kinetin efficacy) [µM] | Emax [%] |
| --- | --- | --- |
| Clc1nc(NCc2ccccn2)c2cc[nH]c2n1 [(350)] | – | 49.5 |
| COc1nc2c(N(C)Cc3nccs3)nc(Cl)nc2[nH]1 [(351)] | – | 22 |
| Fc1ccccc1CNc1nc(Cl)nc2[nH]cnc12 [(352)] | – | 25 |
| Clc1nc(NCc2cnccn2)c2cc[nH]c2n1 [(353)] | – | 78 |
| Fc1ccccc1CNc1nc(Cl)nc2[nH]ccc12 [(354)] | – | 57.5 |
| Clc1nc(NCc2cccnc2)c2cc[nH]c2n1 [(355)] | – | 26 |
| Clc1nc(NCc2ccccn2)c2nc[nH]c2n1 [(356)] | – | 17 |
| CC(Nc1nc(Cl)nc2[nH]ccc12)c1ccncc1 (stereo not shown) [(359)] | – | 31.5 |
| Cn1cccc1CNc1nc(Cl)nc2[nH]ccc12 [(360)] | – | 12.3 |
| Clc1nc(NCc2ncccn2)c2cc[nH]c2n1 [(361)] | – | 9.8 |
| CN(Cc1nccs1)c1nc(Cl)nc2[nH]ccc12 [(363)] | – | 53.2 |
| CC(Nc1nc(Cl)nc2[nH]ccc12)c1nccs1 (stereo not shown) [(364)] | – | 18.2 |
| COc1nc(NCc2ccco2)c2nc(OC)[nH]c2n1 [(365)] | – | 22.4 |
| CC(Nc1nc(Cl)nc2[nH]cnc12)c1ccncc1 (stereo not shown) [(366)] | – | 19.2 |
| Fc1nc(NCc2nccs2)c2nc[nH]c2n1 [(367)] | – | 94 |
| CC(Nc1nc(Cl)nc2[nH]cnc12)c1nccs1 (stereo not shown) [(368)] | – | 2.4 |
| CN(Cc1ccncc1)c1nc(Cl)nc2[nH]ccc12 [(369)] | – | 57.8 |
| COc1nc2c(NC(C)c3nccs3)nc(Cl)nc2[nH]1 (stereo not shown) [(370)] | – | 33 |
| Fc1nc(NCc2ccncc2)c2nc[nH]c2n1 [(371)] | – | 82 |
| Clc1nc(NCc2cncs2)c2cc[nH]c2n1 [(373)] | – | 25.1 |
| COc1nc2c(NCc3cnccn3)nc(Cl)nc2[nH]1 [(374)] | – | 34.2 |
| COc1nc2c(NCc3cscn3)nc(Cl)nc2[nH]1 [(375)] | 2.18 | 134 |
